Patent US7465448B2, “Chemokine receptor antagonists as therapeutic agents” (Medical College of Georgia Research Institute, Inc., priority 2002, dated 2008)
“Also recorded” adds a separate entry of the source.

Experiments:
[1] = target: T1, IDO (Mus musculus, UniProt P28776); assay: MLR with sorted mouse tumor-draining lymph node cell fractions and BM3 T cell responders, with or without 1MT; assay type: cell-based; details: wild-type host, B78.GM tumor-draining LN
T1 construct: from tissue; host or cells: tumor-draining inguinal lymph node cells (sorted fractions) of C57BL/6 mice bearing B78.GM tumors
T1 sequence (P28776 whole entry): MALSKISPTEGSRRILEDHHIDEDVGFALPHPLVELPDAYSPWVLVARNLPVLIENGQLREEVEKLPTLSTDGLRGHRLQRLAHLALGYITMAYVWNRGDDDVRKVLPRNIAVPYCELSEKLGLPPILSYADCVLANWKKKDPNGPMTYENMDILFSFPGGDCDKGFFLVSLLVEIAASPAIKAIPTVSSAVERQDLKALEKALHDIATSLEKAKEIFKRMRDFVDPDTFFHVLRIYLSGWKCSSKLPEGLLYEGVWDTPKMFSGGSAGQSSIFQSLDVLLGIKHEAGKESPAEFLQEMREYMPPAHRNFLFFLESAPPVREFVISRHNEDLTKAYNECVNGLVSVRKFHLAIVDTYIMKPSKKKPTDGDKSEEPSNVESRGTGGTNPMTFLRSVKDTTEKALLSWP
Text: (§1) Lymph node (LN) cells were harvested from inguinal LNs draining established B78.GM tumors. Control cells were harvested from the contralateral inguinal nodes in the same mouse. LN cells were irradiated and used as stimulators in allo-MLRs, with the responder cells being TCR-transgenic CD8^+ T cells from BM3 mice, as BM3 T cells recognize H-2K^b as an alloantigen (Tarazona, R., et al., Int. Immunol., 8:351-358, (1996)), and thus are reactive with all MHC class I positive cells from C57BL/6 tumor-bearing hosts. These cells are known by those of skill in the art to be a recognized assay system for IDO-mediated suppression of the T cell response (Munn, D. H., et al., Science, 297:1867-1870, (2002); Lee et al., Immunol., 107:1-9, (2002)). […] To determine the etiology of T cell suppression by APCs, tumor draining lymph node cells were harvested from B78.GM tumors and sorted into a B220^+ CD11c^+ plasmacytoid dendritic cell (pDC) fraction and a CD25^+CD4^+ regulatory T-cell (Treg) fraction. A third “all other” fraction was also collected. Each fraction was used as stimulators in an MLR with BM3 responders. […] Pooled draining LN cells (4 nodes) were stained and fractionated by 4-color cell sorting for the two populations shown in the top schematic. All other cells were collected in a third fraction. Each fraction was then used as stimulators in MLRs (FIG. 13), using 50,000 BM3 T cells as responders. The number of stimulators used in each MLR was adjusted to be the same as would have been present in 50,000 cells of the original LN preparation, based on the measured percentage of each sorted fraction. Thus, in the experiment shown, 500 cells of the sorted B220^+ CD11c^+ fraction were added per well, and 1500 cells of the CD25^+ CD4^+ fraction, while 48,000 cells of the “all other” fraction were used.

[2] = system: IDO; assay: as above; assay type: cell-based
Text: as §1

[3] = system: CCR6^+/IDO^+ APCs; assay: Mip-3α-induced chemotaxis of dendritic cells, upper/lower chamber (Example 8); assay type: cell-based, human; details: 0.5×10^6 DCs/well, after 4 hours
Method: In this experiment, mip-3α-induced chemotaxis of CCR6^+/IDO^+ APCs was measured. Dendritic cells matured with a cytokine cocktail as described herein were used for a chemotaxis assay with mip-3α as the chemoattractant. Thus, monocytes were cultured in serum free medium (X-Vivo15) for five days in the presence of GMCSF (50 ng/mL) and IL-4 (50 ng/mL). After five days, cells were treated with a cytokine cocktail consisting of IL-1β (1870 U/mL), IL-6 (1000 U/mL), TNFα (1100 U/mL) and prostaglandin E2 (PGE2; 1.0 μg/mL), for two days. The cells were harvested and used for the chemotaxis assay. Control starting DCs were immunostained for CD123 and CCR6 (“Pre-Chemotaxis DCs”).
Mip-3α (0.5 μg/mL) was added to the different chambers and a defined number of DCs (0.5×10^6/well) were put on the upper chamber. After 4 hours, cells were counted in lower chamber of each group (Table 2). FACS immunostain was performed on all groups for CCR6 and CD123 (FIG. 7). […] Migration required a gradient of mip-3α from the upper chamber to the lower chamber, consistent with ligand induced chemotaxis.

[4] = target: T2, CCR6 receptor (Homo sapiens, UniProt P51684); assay: Mip-3α gradient migration of mixed DCs with or without blocking anti-CCR6 antibody (Example 9); assay type: cell-based
T2 construct: a mixture of both CD123-positive (CCR6-positive) and CD123-negative (CCR6-negative) cells; endogenous in cells; host or cells: human monocyte-derived dendritic cells (mixed adherent and non-adherent fractions)
T2 sequence (P51684 1-374): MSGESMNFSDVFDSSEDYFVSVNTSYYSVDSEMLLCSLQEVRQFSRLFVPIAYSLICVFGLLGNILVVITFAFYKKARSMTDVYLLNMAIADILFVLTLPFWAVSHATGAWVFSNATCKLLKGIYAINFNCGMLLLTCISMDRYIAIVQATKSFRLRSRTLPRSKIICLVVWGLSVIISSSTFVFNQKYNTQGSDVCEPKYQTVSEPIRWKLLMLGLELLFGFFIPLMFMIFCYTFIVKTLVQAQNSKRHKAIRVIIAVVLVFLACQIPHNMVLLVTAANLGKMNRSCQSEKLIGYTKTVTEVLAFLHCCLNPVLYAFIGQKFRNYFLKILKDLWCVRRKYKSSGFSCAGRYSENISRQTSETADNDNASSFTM
Text: Monocyte-derived human dendritic cells (adherent and non-adherent fractions) were harvested and pooled, as described in Example 8, yielding a preparation comprising a mixture of both CD123-positive (CCR6-positive) and CD123-negative (CCR6-negative) cells. In Example 8, it was shown that a gradient of mip-3α caused selective migration of the CD123+ (CCR6+) population.
The mixed population of DCs was allowed to migrate across a porous membrane in response to a gradient of mip-3alpha, as described in Example 8. Different treatment groups received a commercial anti-CCR6 antibody (10 ug/ml), an isotype-matched control antibody at the same concentration, or no antibody. After 18 hrs, migrating cells (recovered in the lower chamber of the chemotaxis assay apparatus) were harvested, counted, and analyzed by flow cytometry for CD123 expression. CD123 was used as a marker to identify the IDO-expressing population, rather than CCR6, because the anti-CCR6 blocking antibody could artifactually interfere with immunofluorescent staining for CCR6. Since both markers are co-expressed on the IDO+ cells with a one-to-one correspondence, either marker gives equivalent information.

[5] = target: T3, CXCR4 (Homo sapiens, UniProt P61073); assay: Yeast (S. cerevisiae) pheromone-pathway signaling assay with expressed CXCR4; assay type: cell-based; details: yeast strains expressing CXCR4-WT; not in control cells lacking the receptor
T3 construct: expressed in transfected cells; host or cells: Saccharomyces cerevisiae, CXCR4 subcloned in the Cp4258 vector, coupled through a mammalian/yeast hybrid G subunit
T3 sequence (P61073 whole entry, species assumed): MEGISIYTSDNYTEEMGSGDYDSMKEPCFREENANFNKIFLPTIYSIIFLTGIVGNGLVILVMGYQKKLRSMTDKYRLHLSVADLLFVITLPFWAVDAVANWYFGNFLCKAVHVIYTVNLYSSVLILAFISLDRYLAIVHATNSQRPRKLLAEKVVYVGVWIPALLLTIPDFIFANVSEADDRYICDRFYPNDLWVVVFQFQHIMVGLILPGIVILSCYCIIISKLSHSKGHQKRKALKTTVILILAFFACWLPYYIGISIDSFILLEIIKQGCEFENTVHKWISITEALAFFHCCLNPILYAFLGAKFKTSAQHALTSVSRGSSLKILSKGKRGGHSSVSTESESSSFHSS
Text: For example, CCR6 can be functionally expressed in S. cerevisiae for the purpose of screening putative antagonists and for generating constitutively active mutants (CAMs). Similar studies have been performed by the inventors using related […] receptors CXCR4 and CCR5. Thus, chemokine receptors CXCR4 and CCR5 were expressed in a yeast strain in which these guanine nucleotide protein receptors (GPRs) were coupled to the mating pheromone response pathway by a mammalian/yeast hybrid G subunit. Consequently, stimulation of CXCR4 and CCR5 by the cognate ligands (SDF-1 and RANTES, respectively) activated signal transduction that results in histidine prototrophy or, in strains also carrying a pheromone-responsive FUS1-lacZ reporter gene, beta-galactosidase expression. In these experiments, SDF-1 stimulated histidine-independent growth and reporter gene expression in yeast strains expressing CXCR4-WT, but not in control cells lacking the receptor. […] All available CXCR4 antagonists blocked growth in histidine deficient medium resulting from CXCR4 activation and the induction of reporter gene expression stimulated by SDF-1.

**Q.** With `Cn1cc(CC(N)C(=O)O)c2ccccc21` (centres unmarked) [1-MT, 1-methyl-(D,L)-tryptophan] as the compound, how does the “IDO-mediated suppression in mixing experiments (pDCs plus "all other" fraction)” value [1] read?
**A.** can be fully reversed; also recorded: again fully reversed

**Q.** And the “Suppression by B220+ CD11c+ (pDC) fraction” value [1]?
**A.** fully reversed

**Q.** And the “Effect on MLR with LN fractions from IDO-knockout host” value ([2]; IDO-KO host, any group)?
**A.** no enhancing effect

**Q.** What about the “Suppression mediated by CD25+ CD4+ Tregs” value ([2]; wild-type host, B78.GM tumor-draining LN) of the same compound?
**A.** not affected

**Q.** How did the “Number of Cells in Lower Chamber” value ([3]; Mip-3α (0.5 μg/mL) in lower chamber only (gradient)) turn out when “Mip-3α: chemokine, ligand for the CCR6 chemokine receptor; chemotactic factor for immature dendritic cells” was run?
**A.** 2.96

**Q.** What about the “Number of Cells in Lower Chamber” value ([3]; Mip-3α (0.5 μg/mL) in upper and lower chamber) of the same compound?
**A.** 0.98

**Q.** What about the “Number of Cells in Lower Chamber” value ([3]; Mip-3α (0.5 μg/mL) in upper chamber only) of the same compound?
**A.** 0.73

**Q.** And the “Increase of migration of CD123+ cells” value ([4]; gradient of mip-3α, 18 hrs)?
**A.** > 10 fold

**Q.** And the “Purity of CD123+ cells in migrated population” value ([4]; gradient of mip-3α, starting population 68% CD123+)?
**A.** 96%

**Q.** And the “Mip-3α induced migration without gradient” value ([4]; mip-3α present on both sides of the membrane)?
**A.** substantially reduced

**Q.** How did the “Histidine-independent growth and reporter gene expression” value [5] turn out when SDF-1: cognate ligand of CXCR4 was run?
**A.** stimulated
